Key:
Conditions in all cases: exposure time: 72 h
E31 [1] = patient-derived glioblastoma stem cells of proneural subtype; test: phenotypic distance (Euclidean, principal components) from DMSO controls (arbitrary units); higher = stronger morphological change
FT3469 [2] = normal neural stem cell line; test: as above
E28 [3] = patient-derived glioblastoma stem cells of classical subtype; test: as above
E34 [4] = patient-derived glioblastoma stem cells of proneural subtype; test: as above
E57 [5] = patient-derived glioblastoma stem cells of mesenchymal subtype; test: as above
E13 [6] = patient-derived glioblastoma stem cells of classical subtype; test: as above
E21 [7] = patient-derived glioblastoma stem cells of mesenchymal subtype; test: as above
E31 [8] = test: surviving fraction (nuclei count normalised to DMSO); higher = more cells surviving (less toxic)
FT3469 [9] = test: as above
E28 [10] = test: as above
E34 [11] = test: as above
E57 [12] = test: as above
E13 [13] = test: as above
E21 [14] = test: as above
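For phenotypic distance (Euclidean, principal components) from DMSO controls in this document: cell Painting imaging in 384-well plates, CellProfiler features reduced to at least 20 principal components, Euclidean distance versus same-plate DMSO vehicle wells (0.1% v/v), median over six images per well.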
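For surviving fraction (nuclei count normalised to DMSO) in this document: nuclei counted by high-content imaging of Hoechst-stained cells in laminin-coated 384-well plates, relative to 0.1% DMSO vehicle wells, with staurosporine as cell-death control.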

Cc1cc(Nc2cc(N3CCN(C)CC3)nc(Sc3ccc(NC(=O)C4CC4)cc3)n2)n[nH]1 [Tozasertib]
Conditions | phenotypic distance | surviving fraction
E13 [6], 4.1 nM | 1.12 | –
E13 [6], 12.3 nM | 0.667 | –
E13 [6], 37 nM | 1.66 | –
E13 [6], 111.1 nM | 4.34 | –
E13 [6], 333.3 nM | 4.49 | –
E13 [6], 1000 nM | 4.52 | –
E13 [6], 3000 nM | 4.41 | –
E13 [13], 4.1 nM | – | 0.866
E13 [13], 12.3 nM | – | 0.951
E13 [13], 37 nM | – | 0.797
E13 [13], 111.1 nM | – | 0.519
E13 [13], 333.3 nM | – | 0.467
E13 [13], 1000 nM | – | 0.391
E13 [13], 3000 nM | – | 0.413
E21 [7], 4.1 nM | 1.38 | –
E21 [7], 12.3 nM | 0.727 | –
E21 [7], 37 nM | 1.05 | –
E21 [7], 111.1 nM | 2.02 | –
E21 [7], 333.3 nM | 5.67 | –
E21 [7], 1000 nM | 6.71 | –
E21 [7], 3000 nM | 6.04 | –
E21 [14], 4.1 nM | – | 0.847
E21 [14], 12.3 nM | – | 0.898
E21 [14], 37 nM | – | 0.798
E21 [14], 111.1 nM | – | 0.743
E21 [14], 333.3 nM | – | 0.288
E21 [14], 1000 nM | – | 0.215
E21 [14], 3000 nM | – | 0.224
E28 [3], 4.1 nM | 0.827 | –
E28 [3], 12.3 nM | 1.02 | –
E28 [3], 37 nM | 1.05 | –
E28 [3], 111.1 nM | 2.58 | –
E28 [3], 333.3 nM | 2.63 | –
E28 [3], 1000 nM | 2.85 | –
E28 [3], 3000 nM | 2.36 | –
E28 [10], 4.1 nM | – | 0.971
E28 [10], 12.3 nM | – | 0.855
E28 [10], 37 nM | – | 0.81
E28 [10], 111.1 nM | – | 0.555
E28 [10], 333.3 nM | – | 0.535
E28 [10], 1000 nM | – | 0.453
E28 [10], 3000 nM | – | 0.482
E31 [1], 4.1 nM | 0.87 | –
E31 [1], 12.3 nM | 0.54 | –
E31 [1], 37 nM | 1.16 | –
E31 [1], 111.1 nM | 3.12 | –
E31 [1], 333.3 nM | 2.58 | –
E31 [1], 1000 nM | 3.12 | –
E31 [1], 3000 nM | 2.47 | –
E31 [8], 4.1 nM | – | 0.944
E31 [8], 12.3 nM | – | 0.959
E31 [8], 37 nM | – | 0.697
E31 [8], 111.1 nM | – | 0.423
E31 [8], 333.3 nM | – | 0.404
E31 [8], 1000 nM | – | 0.311
E31 [8], 3000 nM | – | 0.33
E34 [4], 4.1 nM | 1.42 | –
E34 [4], 12.3 nM | 0.649 | –
E34 [4], 37 nM | 0.729 | –
E34 [4], 111.1 nM | 2.85 | –
E34 [4], 333.3 nM | 2.79 | –
E34 [4], 1000 nM | 2.34 | –
E34 [4], 3000 nM | 2.29 | –
E34 [11], 4.1 nM | – | 0.814
E34 [11], 12.3 nM | – | 0.878
E34 [11], 37 nM | – | 0.929
E34 [11], 111.1 nM | – | 0.744
E34 [11], 333.3 nM | – | 0.711
E34 [11], 1000 nM | – | 0.728
E34 [11], 3000 nM | – | 0.722
E57 [5], 4.1 nM | 0.542 | –
E57 [5], 12.3 nM | 0.685 | –
E57 [5], 37 nM | 0.782 | –
E57 [5], 111.1 nM | 4.65 | –
E57 [5], 333.3 nM | 7.94 | –
E57 [5], 1000 nM | 8.6 | –
E57 [5], 3000 nM | 8.14 | –
E57 [12], 4.1 nM | – | 0.966
E57 [12], 12.3 nM | – | 0.942
E57 [12], 37 nM | – | 0.963
E57 [12], 111.1 nM | – | 0.484
E57 [12], 333.3 nM | – | 0.241
E57 [12], 1000 nM | – | 0.19
E57 [12], 3000 nM | – | 0.197
FT3469 [2], 4.1 nM | 0.795 | –
FT3469 [2], 12.3 nM | 0.771 | –
FT3469 [2], 37 nM | 0.921 | –
FT3469 [2], 111.1 nM | 2.37 | –
FT3469 [2], 333.3 nM | 2.57 | –
FT3469 [2], 1000 nM | 2.47 | –
FT3469 [2], 3000 nM | 2.16 | –
FT3469 [9], 4.1 nM | – | 0.899
FT3469 [9], 12.3 nM | – | 0.836
FT3469 [9], 37 nM | – | 0.773
FT3469 [9], 111.1 nM | – | 0.688
FT3469 [9], 333.3 nM | – | 0.737
FT3469 [9], 1000 nM | – | 0.697
FT3469 [9], 3000 nM | – | 0.579

CN1C(=O)OC(C)(C)C1=O [Trimethadione]
Conditions | phenotypic distance | surviving fraction
E13 [6], 4.1 nM | 0.619 | –
E13 [6], 12.3 nM | 0.485 | –
E13 [6], 37 nM | 0.498 | –
E13 [6], 111.1 nM | 0.332 | –
E13 [6], 333.3 nM | 0.419 | –
E13 [6], 1000 nM | 0.395 | –
E13 [6], 3000 nM | 0.509 | –
E13 [13], 4.1 nM | – | 0.872
E13 [13], 12.3 nM | – | 1.05
E13 [13], 37 nM | – | 0.904
E13 [13], 111.1 nM | – | 0.943
E13 [13], 333.3 nM | – | 0.94
E13 [13], 1000 nM | – | 1.07
E13 [13], 3000 nM | – | 0.9
E21 [7], 4.1 nM | 0.779 | –
E21 [7], 12.3 nM | 0.495 | –
E21 [7], 37 nM | 0.506 | –
E21 [7], 111.1 nM | 0.324 | –
E21 [7], 333.3 nM | 0.36 | –
E21 [7], 1000 nM | 0.29 | –
E21 [7], 3000 nM | 0.461 | –
E21 [14], 4.1 nM | – | 0.949
E21 [14], 12.3 nM | – | 1.02
E21 [14], 37 nM | – | 0.937
E21 [14], 111.1 nM | – | 1.05
E21 [14], 333.3 nM | – | 1.01
E21 [14], 1000 nM | – | 0.949
E21 [14], 3000 nM | – | 1.03
E28 [3], 4.1 nM | 0.624 | –
E28 [3], 12.3 nM | 0.657 | –
E28 [3], 37 nM | 0.665 | –
E28 [3], 111.1 nM | 0.367 | –
E28 [3], 333.3 nM | 0.471 | –
E28 [3], 1000 nM | 0.385 | –
E28 [3], 3000 nM | 0.844 | –
E28 [10], 4.1 nM | – | 0.994
E28 [10], 12.3 nM | – | 1.14
E28 [10], 37 nM | – | 0.959
E28 [10], 111.1 nM | – | 1.03
E28 [10], 333.3 nM | – | 1
E28 [10], 1000 nM | – | 1
E28 [10], 3000 nM | – | 0.903
E31 [1], 4.1 nM | 0.578 | –
E31 [1], 12.3 nM | 0.705 | –
E31 [1], 37 nM | 0.678 | –
E31 [1], 111.1 nM | 0.582 | –
E31 [1], 333.3 nM | 0.402 | –
E31 [1], 1000 nM | 0.343 | –
E31 [1], 3000 nM | 0.599 | –
E31 [8], 4.1 nM | – | 0.999
E31 [8], 12.3 nM | – | 1.03
E31 [8], 37 nM | – | 0.936
E31 [8], 111.1 nM | – | 1.15
E31 [8], 333.3 nM | – | 1.04
E31 [8], 1000 nM | – | 1.01
E31 [8], 3000 nM | – | 0.759
E34 [4], 4.1 nM | 0.536 | –
E34 [4], 12.3 nM | 0.379 | –
E34 [4], 37 nM | 0.464 | –
E34 [4], 111.1 nM | 1.03 | –
E34 [4], 333.3 nM | 0.604 | –
E34 [4], 1000 nM | 0.565 | –
E34 [4], 3000 nM | 0.885 | –
E34 [11], 4.1 nM | – | 1.12
E34 [11], 12.3 nM | – | 1.04
E34 [11], 37 nM | – | 1.04
E34 [11], 111.1 nM | – | 0.867
E34 [11], 333.3 nM | – | 0.972
E34 [11], 1000 nM | – | 0.961
E34 [11], 3000 nM | – | 0.86
E57 [5], 4.1 nM | 0.62 | –
E57 [5], 12.3 nM | 0.587 | –
E57 [5], 37 nM | 0.572 | –
E57 [5], 111.1 nM | 0.439 | –
E57 [5], 333.3 nM | 0.455 | –
E57 [5], 1000 nM | 1.11 | –
E57 [5], 3000 nM | 0.844 | –
E57 [12], 4.1 nM | – | 1.11
E57 [12], 12.3 nM | – | 0.909
E57 [12], 37 nM | – | 1.04
E57 [12], 111.1 nM | – | 1.04
E57 [12], 333.3 nM | – | 1
E57 [12], 1000 nM | – | 0.96
E57 [12], 3000 nM | – | 0.885
FT3469 [2], 4.1 nM | 0.493 | –
FT3469 [2], 12.3 nM | 0.946 | –
FT3469 [2], 37 nM | 0.598 | –
FT3469 [2], 111.1 nM | 0.319 | –
FT3469 [2], 333.3 nM | 0.852 | –
FT3469 [2], 1000 nM | 0.673 | –
FT3469 [2], 3000 nM | 0.994 | –
FT3469 [9], 4.1 nM | – | 1.05
FT3469 [9], 12.3 nM | – | 0.973
FT3469 [9], 37 nM | – | 0.987
FT3469 [9], 111.1 nM | – | 1.03
FT3469 [9], 333.3 nM | – | 0.983
FT3469 [9], 1000 nM | – | 1.03
FT3469 [9], 3000 nM | – | 0.855
